Test results from PubChem BioAssay (NCI).
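The compound was tested at five concentrations on cells cultured in 96-well plates, with a 48-hour exposure period. TGI is the concentration that stops growth completely.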

Tests used:
Test in all cases: NCI-60 cell line screen, 48 h
[1] = tested on: 786-0 renal
[2] = tested on: A498 renal
[3] = tested on: A549 NSCLC
[4] = tested on: ACHN renal
[5] = tested on: BT-549 breast
[6] = tested on: CAKI-1 renal
[7] = tested on: CCRF-CEM leukemia
[8] = tested on: COLO 205 colon
[9] = tested on: DU-145 prostate
[10] = tested on: EKVX NSCLC
[11] = tested on: HCT-116 colon
[12] = tested on: HCT-15 colon
[13] = tested on: HL-60(TB) leukemia
[14] = tested on: HOP-62 NSCLC
[15] = tested on: HOP-92 NSCLC
[16] = tested on: HS 578T breast
[17] = tested on: HT29 colon
[18] = tested on: IGROV1 ovarian
[19] = tested on: K-562 leukemia
[20] = tested on: KM12 colon
[21] = tested on: LOX IMVI melanoma
[22] = tested on: M14 melanoma
[23] = tested on: MALME-3M melanoma
[24] = tested on: MCF7 breast
[25] = tested on: MDA-MB-231 breast
[26] = tested on: MDA-MB-435
[27] = tested on: MDA-N
[28] = tested on: NCI-H226 lung
[29] = tested on: NCI-H23 lung
[30] = tested on: NCI-H460 lung
[31] = tested on: NCI-H522 lung
[32] = tested on: NCI/ADR-RES ovarian
[33] = tested on: OVCAR-3 ovarian
[34] = tested on: OVCAR-4 ovarian
[35] = tested on: OVCAR-5 ovarian
[36] = tested on: OVCAR-8 ovarian
[37] = tested on: PC-3 prostate
[38] = tested on: RPMI-8226 leukemia
[39] = tested on: RXF 393 renal
[40] = tested on: SF-268 CNS
[41] = tested on: SF-295 CNS
[42] = tested on: SF-539 CNS
[43] = tested on: SK-MEL-2 melanoma
[44] = tested on: SK-MEL-28 melanoma
[45] = tested on: SK-MEL-5 melanoma
[46] = tested on: SK-OV-3 ovarian
[47] = tested on: SN12C renal
[48] = tested on: SNB-19 CNS
[49] = tested on: SNB-75 CNS
[50] = tested on: SR leukemia
[51] = tested on: SW-620 colon
[52] = tested on: T-47D breast
[53] = tested on: TK-10 renal
[54] = tested on: U251 CNS
[55] = tested on: UACC-257 melanoma
[56] = tested on: UACC-62 melanoma
[57] = tested on: UO-31 renal
[58] = tested on: HCC-2998 colon
[59] = tested on: MOLT-4 leukemia

O=CNC(Cc1cnc[nH]1)C(=O)O (centres undefined)
TGI [1]: > 100 µM
TGI [2]: > 100 µM
TGI [3]: > 100 µM
TGI [4]: > 100 µM
TGI [5]: > 100 µM
TGI [6]: > 100 µM
TGI [7]: > 100 µM
TGI [8]: > 100 µM
TGI [9]: > 100 µM
TGI [10]: > 100 µM
TGI [11]: > 100 µM
TGI [12]: > 100 µM
TGI [13]: > 100 µM
TGI [14]: > 100 µM
TGI [15]: > 100 µM
TGI [16]: > 100 µM
TGI [17]: > 100 µM
TGI [18]: > 100 µM
TGI [19]: > 100 µM
TGI [20]: > 100 µM
TGI [21]: > 100 µM
TGI [22]: > 100 µM
TGI [23]: > 100 µM
TGI [24]: > 100 µM
TGI [25]: > 100 µM
TGI [26]: > 100 µM
TGI [27]: > 100 µM
TGI [28]: > 100 µM
TGI [29]: > 100 µM
TGI [30]: > 100 µM
TGI [31]: > 100 µM
TGI [32]: > 100 µM
TGI [33]: > 100 µM
TGI [34]: > 100 µM
TGI [35]: > 100 µM
TGI [36]: > 100 µM
TGI [37]: > 100 µM
TGI [38]: > 100 µM
TGI [39]: > 100 µM
TGI [40]: > 100 µM
TGI [41]: > 100 µM
TGI [42]: > 100 µM
TGI [43]: > 100 µM
TGI [44]: > 100 µM
TGI [45]: > 100 µM
TGI [46]: > 100 µM
TGI [47]: > 100 µM
TGI [48]: > 100 µM
TGI [49]: > 100 µM
TGI [50]: > 100 µM
TGI [51]: > 100 µM
TGI [52]: > 100 µM
TGI [53]: > 100 µM
TGI [54]: > 100 µM
TGI [55]: > 100 µM
TGI [56]: > 100 µM
TGI [57]: > 100 µM

Cc1ccc([N+](=O)[O-])cc1S(=O)(=O)Nc1ccc(C2=NN(S(=O)(=O)c3cc([N+](=O)[O-])ccc3C)C(c3cccs3)C2)cc1 (centres undefined)
TGI [1]: > 100 µM
TGI [2]: 78.6 µM
TGI [3]: > 100 µM
TGI [4]: > 100 µM
TGI [5]: > 100 µM
TGI [6]: > 100 µM
TGI [8]: 25.3 µM
TGI [9]: > 100 µM
TGI [10]: > 100 µM
TGI [58]: 56.6 µM
TGI [11]: 77 µM
TGI [12]: > 100 µM
TGI [13]: > 100 µM
TGI [14]: > 100 µM
TGI [15]: > 100 µM
TGI [16]: 53.7 µM
TGI [17]: > 100 µM
TGI [18]: > 100 µM
TGI [19]: 88.3 µM
TGI [20]: > 100 µM
TGI [21]: > 100 µM
TGI [22]: > 100 µM
TGI [23]: > 100 µM
TGI [24]: 82.1 µM
TGI [25]: > 100 µM
TGI [26]: > 100 µM
TGI [27]: > 100 µM
TGI [59]: 89.3 µM
TGI [28]: > 100 µM
TGI [29]: 59.9 µM
TGI [30]: 94.6 µM
TGI [31]: 79.5 µM
TGI [32]: > 100 µM
TGI [33]: 52.6 µM
TGI [34]: > 100 µM
TGI [35]: > 100 µM
TGI [36]: > 100 µM
TGI [37]: > 100 µM
TGI [38]: 67.6 µM
TGI [39]: > 100 µM
TGI [40]: 75 µM
TGI [41]: 69.2 µM
TGI [43]: 69.2 µM
TGI [44]: > 100 µM
TGI [45]: > 100 µM
TGI [46]: > 100 µM
TGI [47]: > 100 µM
TGI [48]: > 100 µM
TGI [49]: > 100 µM
TGI [50]: 66.1 µM
TGI [51]: > 100 µM
TGI [52]: > 100 µM
TGI [53]: > 100 µM
TGI [54]: > 100 µM
TGI [55]: > 100 µM
TGI [56]: 47.5 µM
TGI [57]: > 100 µM
